Experimental data taken from patent US20220400680A1, “USE OF ACYLCYANAMIDES OR SALTS THEREOF FOR REGULATING PLANT GROWTH” (Alzchem Trostberg GmbH, priority 2019, published 2022).

Experiments:
[1] = test system: Table apple, type Zabergäu-Renette (C2); test: Greenhouse test, cut apple branches C2 dipped in test solution, bud development stage; assay type: in vivo, Malus domestica; design: key to Bud development stage, apple branches C2: Stage 0: Buds unchanged; Stage 1: Buds slightly swollen, first green tips visible; Stage 2: strongly swollen, green buds; Stage 3: Buds before breaking open, leaf or flower root already visible; Stage 4: Flower buds fully developed, but still closed, white petals already visible. In the case of the grapevine, stage 4 was the unfolding of the first leaves; Stage 5: Flowers fully open or, in the case of grapevine, unfolding of the flower roots (“Gescheine”) on the fully leafed sprouts; settings: for Dormancy-breaking effect according to the definition, apple C2: stage 4 reached or exceeded after 36 days vs negative control
Summary of the method: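 Cut branches held in water jars in a greenhouse at about 22° C. under natural light after dipping in aqueous test solution: 0.15 mol substance (0.075 mol for bis-cyanamides) plus 0.15 g BreakThru OE-446 per 500 g. Bud development scored on a stage scale from closed buds to fully open flowers.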

[2] = test system: Table apple, type Boiken apple (C1); test: Greenhouse test, cut apple branches C1 dipped in test solution, bud development stage; assay type: in vivo, Malus domestica; design: key to Bud development stage, apple branches C1: Stage 0: Buds unchanged; Stage 1: Buds slightly swollen, first green tips visible; Stage 2: strongly swollen, green buds; Stage 3: Buds before breaking open, leaf or flower root already visible; Stage 4: Flower buds fully developed, but still closed, white petals already visible. In the case of the grapevine, stage 4 was the unfolding of the first leaves; Stage 5: Flowers fully open or, in the case of grapevine, unfolding of the flower roots (“Gescheine”) on the fully leafed sprouts; settings: for Good to very good dormancy-breaking effect, apple C1: stage 4 reached or exceeded after 27 days vs negative control; for Dormancy-breaking effect according to the definition, apple C1: stage 4 reached or exceeded after 36 days vs negative control
Summary of the method: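 Cut Boiken apple branches kept in water jars in a greenhouse at about 22 °C under natural light and dipped in test solution. Solutions contained 0.15 mol test substance (0.075 mol for bis-cyanamides) plus 0.15 g BreakThru OE-446 per 500 g water. Bud development scored on a stage scale up to full flowering.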

[3] = test system: Grape, type Pinot Noir (C4); test: Greenhouse test, cut wine sprouts C4 dipped in test solution, bud development stage; assay type: in vivo, Vitis vinifera subsp. vinifera; design: key to Bud development stage, wine sprouts C4: Stage 0: Buds unchanged; Stage 1: Buds slightly swollen, first green tips visible; Stage 2: strongly swollen, green buds; Stage 3: Buds before breaking open, leaf or flower root already visible; Stage 4: Flower buds fully developed, but still closed, white petals already visible. In the case of the grapevine, stage 4 was the unfolding of the first leaves; Stage 5: Flowers fully open or, in the case of grapevine, unfolding of the flower roots (“Gescheine”) on the fully leafed sprouts; settings: for Dormancy-breaking effect according to the definition, wine C4: stage 4 reached or exceeded after 36 days vs negative control
Summary of the method: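 Cut Pinot Noir grapevine sprouts were dipped in aqueous test solution (0.15 mol test substance, or 0.075 mol for bis-cyanamides, plus 0.15 g BreakThru OE-446 per 500 g total) and kept in water jars at about 22° C under natural light. Bud development was scored on a staged scale from closed buds to fully open flowers.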

[4] = test system: Table cherry, type Burlat (C3); test: Greenhouse test, cut cherry branches C3 dipped in test solution, bud development stage; assay type: in vivo, Prunus avium; design: key to Bud development stage, cherry branches C3: Stage 0: Buds unchanged; Stage 1: Buds slightly swollen, first green tips visible; Stage 2: strongly swollen, green buds; Stage 3: Buds before breaking open, leaf or flower root already visible; Stage 4: Flower buds fully developed, but still closed, white petals already visible. In the case of the grapevine, stage 4 was the unfolding of the first leaves; Stage 5: Flowers fully open or, in the case of grapevine, unfolding of the flower roots (“Gescheine”) on the fully leafed sprouts
Summary of the method: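 Cut branches kept in water jars in a greenhouse at about 22° C. under natural light after dipping in aqueous solution of 0.15 mol test substance (0.075 mol for bis-cyanamides) plus 0.15 g BreakThru OE-446 per 500 g. Bud development scored on a stage scale from closed buds to fully open flowers.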

[5] = T1 (14 d), 0.15 mol (A-14, A-15: 0.075 mol) per 500 g solution

| Structure (SMILES) | Bud development stage, apple branches C2 [1, 5] | Bud development stage, apple branches C2 ([1]; T2 (16 d)) | Bud development stage, apple branches C2 ([1]; T3 (21 d)) | Bud development stage, apple branches C2 ([1]; T4 (27 d)) | Bud development stage, apple branches C2 ([1]; T5 (36 d)) | Bud development stage, apple branches C2 ([1]; T6 (56 d)) | Bud development stage, apple branches C1 [2, 5] | Bud development stage, apple branches C1 ([2]; T2 (16 d)) | Bud development stage, apple branches C1 ([2]; T3 (21 d)) | Bud development stage, apple branches C1 ([2]; T4 (27 d)) | Bud development stage, apple branches C1 ([2]; T5 (36 d)) | Bud development stage, apple branches C1 ([2]; T6 (56 d)) | Dormancy-breaking effect according to the definition, apple C1 [2] | Bud development stage, wine sprouts C4 [3, 5] | Bud development stage, wine sprouts C4 ([3]; T2 (16 d)) | Bud development stage, wine sprouts C4 ([3]; T3 (21 d)) | Bud development stage, wine sprouts C4 ([3]; T4 (27 d)) | Bud development stage, wine sprouts C4 ([3]; T5 (36 d)) | Bud development stage, wine sprouts C4 ([3]; T6 (56 d)) | Bud development stage, cherry branches C3 [4, 5] | also measured |
| --- | --- | --- | --- | --- | --- | --- | --- | --- | --- | --- | --- | --- | --- | --- | --- | --- | --- | --- | --- | --- | --- |
| CC(C)C(=O)NC#N.[Na] [Example A-7, Sodium isobutyryl cyanamide] | 0 | 0 | 1 | 1 | 5 | 5 | 2 | 3 | 4 | 5 | 5 | 5 | dormancy-breaking effect | 0 | 0 | 0 | 2 | 5 | 5 | 0 | Dormancy-breaking effect according to the definition, apple C2 [1]: dormancy-breaking effect; Good to very good dormancy-breaking effect, apple C1 [2]: good to very good dormancy-breaking effect; Dormancy-breaking effect according to the definition, wine C4 [3]: dormancy-breaking effect; melting point: 127 to 133 °C; Bud development stage, cherry branches C3 ([4]; T2 (16 d)): 0; Bud development stage, cherry branches C3 ([4]; T3 (21 d)): 1; Bud development stage, cherry branches C3 ([4]; T4 (27 d)): 2; Bud development stage, cherry branches C3 ([4]; T5 (36 d)): 4; Bud development stage, cherry branches C3 ([4]; T6 (56 d)): 5 |
| CCC(=O)NC#N.[Na] [Example A-5, Sodium propionyl cyanamide] | 0 | 0 | 0 | 1 | 3 | 4 | 2 | 2 | 4 | 5 | 5 | 5 | dormancy-breaking effect | 0 | 0 | 0 | 1 | 3 | 5 | 1 | Good to very good dormancy-breaking effect, apple C1 [2]: good to very good dormancy-breaking effect; melting point: 143 °C (dec.); Bud development stage, cherry branches C3 ([4]; T2 (16 d)): 2; Bud development stage, cherry branches C3 ([4]; T3 (21 d)): 4; Bud development stage, cherry branches C3 ([4]; T4 (27 d)): 4; Bud development stage, cherry branches C3 ([4]; T5 (36 d)): 4; Bud development stage, cherry branches C3 ([4]; T6 (56 d)): 5; Good to very good dormancy-breaking effect, cherry C3 ([4]; stage 4 reached or exceeded after 21 days vs negative control): good to very good dormancy-breaking effect; Dormancy-breaking effect according to the definition, cherry C3 ([4]; stage 4 reached or exceeded after 27 days vs negative control): dormancy-breaking effect |
| Cc1ccc(C(=O)NC#N)cc1.[Na] [Example A-13, Sodium-4-methyl-benzoyl-cyanamide] | 0 | 0 | 1 | 3 | 3 | 5 | 0 | 0 | 0 | 1 | 4 | 4 | dormancy-breaking effect | 0 | 0 | 0 | 1 | 3 | 5 | 0 | melting point: 340 °C (dec.); Bud development stage, cherry branches C3 ([4]; T2 (16 d)): 0; Bud development stage, cherry branches C3 ([4]; T3 (21 d)): 0; Bud development stage, cherry branches C3 ([4]; T4 (27 d)): 1; Bud development stage, cherry branches C3 ([4]; T5 (36 d)): 2; Bud development stage, cherry branches C3 ([4]; T6 (56 d)): 5 |
| COC(=O)NC#N.[Na] [Example A-3, Sodium methoxy carbonyl cyanamide] | 0 | 0 | 0 | 2 | 4 | 4 | 1 | 1 | 2 | 3 | 4 | 5 | dormancy-breaking effect | 0 | 0 | 0 | 1 | 5 | 5 | 0 | Dormancy-breaking effect according to the definition, apple C2 [1]: dormancy-breaking effect; Dormancy-breaking effect according to the definition, wine C4 [3]: dormancy-breaking effect; Bud development stage, cherry branches C3 ([4]; T2 (16 d)): 0; Bud development stage, cherry branches C3 ([4]; T3 (21 d)): 0; Bud development stage, cherry branches C3 ([4]; T4 (27 d)): 1; Bud development stage, cherry branches C3 ([4]; T5 (36 d)): 3; Bud development stage, cherry branches C3 ([4]; T6 (56 d)): 5 |
